In ChEMBL document CHEMBL1926505, “Lanostane and hopane triterpenes from the entomopathogenic fungus Hypocrella sp. BCC 14524” (J Nat Prod, 2011):
Values after ≈ are worked out from the molar mass of the structure shown. Active and inactive are the calls of the source. The rule behind the calls is not given here.

What was measured:
Plasmodium falciparum = assay: Antimalarial activity against multidrug-resistant Plasmodium falciparum K1 by microculture radioisotope technique; format: functional, organism-based
[1] = test system: Mycobacterium tuberculosis; assay: Antimycobacterial activity against Mycobacterium tuberculosis H37Ra by green fluorescent protein microplate assay; format: functional
Vero = assay: Cytotoxicity against african green monkey Vero cells by green fluorescent protein microplate assay; format: cell-based; settings: chlorocebus sabaeus
KB = assay: Cytotoxicity against human KB cells by resazurin microplate assay; format: functional, cell-based
NCI-H187 = assay: Cytotoxicity against human NCI-H187 cells by resazurin microplate assay; format: functional, cell-based
MCF7 = assay: Cytotoxicity against human MCF7 cells by resazurin microplate assay; format: functional, cell-based

For `C=C(C)[C@H]1CC[C@]2(C)[C@H]3CC[C@@H]4[C@@]5(C)CC[C@H](OC(C)=O)C(C)(C)[C@@H]5CC[C@@]4(C)[C@]3(C)[C@@H](O)C[C@@H]12`, the Activity (Plasmodium falciparum) was “inactive”, the Activity [1] was “inactive” and the Activity (Vero) was “Non-toxic”. For the same compound, the Activity (KB) was “inactive”, the Activity (NCI-H187) was “inactive” and the Activity (MCF7) was “inactive”.
Compound `CC(C)(O)[C@H]1CC[C@]2(C)[C@H]3CC[C@@H]4[C@@]5(C)CC[C@H](O)C(C)(C)[C@@H]5C[C@H](O)[C@@]4(C)[C@]3(C)[C@@H](O)C[C@@H]12` has an IC50 (Plasmodium falciparum) of 12 µM, an MIC [1] of 50 µg/mL (≈ 105 µM) and an IC50 (Vero) of 47 µM. It also gave an IC50 (KB) of 28 µM, an IC50 (NCI-H187) of 12 µM and an IC50 (MCF7) greater than 105 µM.
`CC(=O)O[C@H]1CC[C@]2(C)[C@H]3CC[C@@H]4[C@@]5(C)CC[C@H](C(C)(C)O)[C@@H]5C[C@H](O)[C@@]4(C)[C@]3(C)[C@@H](O)C[C@H]2C1(C)C` gave an IC50 (Plasmodium falciparum) of 5.2 µM, an MIC [1] of 6.25 µg/mL (≈ 12 µM) and an IC50 (Vero) of 13 µM. The IC50 (KB) was 56 µM, the IC50 (NCI-H187) was 11 µM and the IC50 (MCF7) was greater than 96 µM.
`CC(C)(O)[C@H]1CC[C@]2(C)[C@H]3CC[C@@H]4[C@@]5(C)CC[C@H](O)C(C)(C)[C@@H]5CC[C@@]4(C)[C@]3(C)[C@@H](O)C[C@@H]12` was tested, and the MIC [1] was greater than 50 µg/mL and the Activity (Vero) was “Non-toxic”.
With `CC(=O)O[C@H]1CC[C@]2(C)[C@H]3CC[C@@H]4[C@@]5(C)CC[C@H](C(C)(C)O)[C@@H]5C[C@H](O)[C@@]4(C)[C@]3(C)CC[C@H]2C1(C)C` the MIC [1] was 12.5 µg/mL (≈ 24.9 µM) and the Activity (Vero) was “Non-toxic”.
With `CC(C)(O)[C@H]1CC[C@]2(C)[C@H]3CC[C@@H]4[C@@]5(C)CCCC(C)(C)[C@@H]5CC[C@@]4(C)[C@]3(C)[C@@H](O)C[C@@H]12` the MIC [1] was 12.5 µg/mL (≈ 28.1 µM) and the Activity (Vero) was “Non-toxic”.
For `C=C(C)[C@H]1CC[C@]2(C)[C@H]3CC[C@@H]4[C@@]5(C)CCCC(C)(C)[C@@H]5C[C@H](O)[C@@]4(C)[C@]3(C)[C@@H](O)C[C@@H]12` (relative stereo), the Activity (Plasmodium falciparum) was “inactive”, the Activity [1] was “inactive” and the Activity (Vero) was “Non-toxic”. The Activity (KB) was “inactive”, the Activity (NCI-H187) was “inactive” and the Activity (MCF7) was “inactive”.
`C[C@H]1[C@@H](O)O[C@@H]2O[C@@]3(C)CC[C@H]4[C@H](C)CC[C@@H]1[C@@]24OO3` [ARTENIMOL] gave an IC50 (Plasmodium falciparum) of 0.0011 µM.
In the case of `Cc1c2ccncc2c(C)c2c1[nH]c1ccccc12` [ELLIPTECINE], the IC50 (Vero) is reported as 9.8 µM.
For `CC(C)(O)[C@H]1CC[C@H]([C@H]2CC[C@@]3(C)C4=CC[C@H]5C(C)(C)[C@@H](O)CC[C@]5(C)C4=CC[C@]23C)CO1` [HYPOCRELLOL A], the Activity (Plasmodium falciparum) was “inactive”, the Activity [1] was “inactive” and the Activity (Vero) was “Non-toxic”. For the same compound, the Activity (KB) was “inactive”, the Activity (NCI-H187) was “inactive” and the Activity (MCF7) was “inactive”.
In the case of `CC(=O)O[C@H]1CC[C@]2(C)C3=CC[C@]4(C)[C@@H]([C@H]5CC[C@H](C(C)(C)O)OC5)CC[C@@]4(C)C3=CC[C@H]2C1(C)C` [HYPOCRELLOL B], the Activity (Plasmodium falciparum) is reported as “inactive”, the Activity [1] is reported as “inactive” and the Activity (Vero) is reported as “Non-toxic”. The Activity (KB) was “inactive”, the Activity (NCI-H187) was “inactive” and the Activity (MCF7) was “inactive”.
Compound `CC(=O)O[C@H]1CC[C@]2(C)C3=C(CC[C@H]2C1(C)C)[C@]1(C)CC[C@H]([C@H]2CC[C@H](C(C)(C)O)OC2)[C@@]1(C)C[C@H]3O` [HYPOCRELLOL D] has an IC50 (Plasmodium falciparum) of 8 µM, an MIC [1] of 50 µg/mL (≈ 96.8 µM) and an IC50 (Vero) of 30 µM. The IC50 (KB) was 15 µM, the IC50 (NCI-H187) was 18 µM and the IC50 (MCF7) was 38 µM.
`NNC(=O)c1ccncc1` [ISONIAZID] gave an MIC [1] of 0.0234 µg/mL (≈ 0.171 µM).
